# Reference: a melting point compilation (Tetko et al.; mined from patent text by program, amines drawn as free bases though some values may be those of a salt)
row,SMILES,melting point
1,CCCCS(=O)(=O)NC(=O)/C=C/c1c(C)nn(C)c1-n1ccc2cc(Cl)cnc21,245 to 248 °C
2,OCCC1=Cc2ccccc2C1,47 to 49 °C
3,COC1CNCc2cc3ccccc3n21 (stereo not given),120 to 122 °C
4,c1ccc(Oc2ccc(C(c3ccccc3)(c3ccccn3)n3ccnc3)cc2)cc1 (stereo not given),137 to 140 °C
5,O=C(NCc1ccc(C=NO)cc1Cl)C1CC1,163 to 166 °C
6,CC#Cc1ccc(NC(=O)c2ccccc2NCc2ccncc2)cc1,147 to 155 °C
7,CCCC1C(C(=O)OCC)C(O)(C(F)(F)F)NC(O)(C(F)(F)F)C1C(=O)OCC (stereo not given),140 to 142 °C
8,CCOC(=O)c1[nH]c2cc(F)c(Cl)cc2c1Sc1cc(C)cc(C)c1,170 to 173 °C
9,CCN(CC)C1=NC(=O)C(=Cc2cccc(-c3ccc(O)c(C45CC6CC(CC(C6)C4)C5)c3)c2)S1,275 to 277 °C
10,CC1=C(C(=O)N(c2ccccc2)C2CCCCCC(F)C2)CCO1 (stereo not given),91 °C
11,O=C(c1ccccc1)[C@@]1([N+](=O)[O-])[C@@H]2C=C[C@@H](C2)[C@H]1c1ccccc1 (relative stereo),119 to 120 °C
12,CC1(C)CCCC(C)(C)N1Cc1ccc2cc(NC(=O)c3ccc(-c4ccc(Cl)cc4)nc3)ccc2n1,258 to 259 °C
13,Cc1ccc(Oc2ccc(C(=O)N=C(N)N)cc2S(C)(=O)=O)cn1,197 to 199 °C
14,O=c1c(Cl)nc2ccc(C(F)(F)F)cc2n1OCc1ccccc1,148 to 150 °C
15,COc1ccc(N2CCOCC2)c2sc(-c3ncc[nH]3)nc12,228 to 230 °C
16,CCSc1cc(C)nc(SCC)c1NC(=O)CCCCCCCCSc1nc2c(C)c(Cl)cc(C(C)C)c2o1,93 to 94 °C
17,COc1ccc(NC(=O)C2=C(O)c3ccccc3S(=O)(=O)N2C)ccc1=O,215 to 218 °C
18,CNS(=O)(=O)c1ccc(Nc2nc(N)c(C(=O)c3sccc3C)s2)cc1,197 to 200 °C
19,CCNc1c(F)cc2c(=O)c(C(=O)O)cn(-c3cc(N)c(F)cc3F)c2c1Cl,252 to 255 °C
20,O=C(CN1CC2C(=O)N(c3cc(Cl)cc(Cl)c3)C(=O)C2C1)c1ccc(Br)cc1 (stereo not given),150 °C
21,COC(=O)/C(O)=C1\CCc2cc(OC)ccc2C1=O,77.3 to 77.8 °C
22,COc1ccc2c(c1OC)CCC1C(=O)NC(=O)C21 (stereo not given),217 to 219 °C
23,COc1ccc(-c2cc(COS(C)(=O)=O)c(=O)n(CC=Cc3ccc(Cl)cc3)n2)cc1F,136 °C
24,CCOc1ccc2c(c1)CCc1c(cccc1C(=O)O)S2,165 to 167 °C
25,CC(C)CCn1cc([N+](=O)[O-])cc1C(=O)O,154 to 157 °C

row,SMILES,melting point
1,COC(=O)Nc1cn2cc(Sc3ccccc3)ccc2n1,247 to 249 °C
2,NC(=O)c1ccc(-c2ccc(Cl)cc2)nc1,245 to 258 °C
3,CC(C)c1c(-c2cc(C(F)(F)F)cc(C(F)(F)F)c2)ccc2nc(N)nc(N)c12,212 to 214 °C
4,COc1c(CBr)nc2sc(Cl)cn2c1=O,160 to 162 °C
5,O=C(CC1CCCCC1)Nc1ccccc1,126 to 128 °C
6,O=C1NC(=O)C2(CC(O)c3ccccc32)N1 (stereo not given),260 to 263 °C
7,C=CCC(C(=O)NC)c1ccc(F)cc1 (stereo not given),104 to 105 °C
8,CN(C)Cc1cccc(OCCCNc2ncc(Cc3cccnc3)c(=O)[nH]2)c1,103 to 104 °C
9,O=C1N(Cc2ccc(N3CCOCC3)nc2)c2ccccc2C12COc1cc3c(cc12)OCCO3 (stereo not given),117 to 119 °C
10,COc1ccc(OC)c2c1C[C@](O)(CC#N)CC21SCCS1,173 to 174 °C
11,Cc1nc(-c2ccc([N+](=O)[O-])cc2)sc1C(=O)O,252 to 253 °C
12,CCCCCCCCCCCCCCCCCCS(=O)(=O)c1cc(C(=O)OC)c([N+](=O)[O-])c(C(=O)OC)c1,98 to 100 °C
13,CS(=O)(=O)c1ccc(-c2nc(C(F)(F)F)sc2-c2ccc(F)cc2)cc1,150 to 151 °C
14,COc1ccc2c(c1)C(=O)c1c-2c(Cl)nc2ccccc12,227 to 228 °C
15,CC12CC(CCF)C3C4CCC(=O)C=C4CCC3C1CCC2=O (stereo not given),85 °C
16,CCOC(=O)C(C)COc1ccccc1-c1cc(C#N)c(=O)[nH]c1C (stereo not given),167 to 170 °C
17,CC(C)(C)C(=O)C(C(Sc1ccccc1)c1ccc(F)cc1)n1cncn1 (stereo not given),175 °C
18,CCCCc1[nH]c2ccc([N+](=O)[O-])cc2c1C(=O)c1ccc(O)cc1,230 °C
19,CCCc1c(OCCCOc2cccc3c2CCCC3)ccc2c1OC(CCC(=O)OC)(CCC(=O)N1CCCC1)CC2=O (stereo not given),106 to 107 °C
20,COc1cc(OC)c(F)c(NCc2cnc(SC)nc2NC2CC2)c1F,48 to 50 °C
21,CCn1c(=O)c2c(nc(/C=C/c3ccc(-c4ccccc4)cc3)n2C)n(CC)c1=O,200 to 201 °C
22,COCCO[C@@H]1c2ccc3[nH]c(C)nc3c2O[C@H](c2ccccc2)[C@H]1O,117 °C
23,CCCCCOc1nc(N)nc2c1ncn2C1C=CC(CO)C1 (stereo not given),139 to 141 °C
24,CCNc1ccc2c(c1)CNC2,69 to 71 °C
25,OCC1OC(n2cnc3c(SCc4ccc5nc[nH]c5c4)ncnc32)C(O)C1O (stereo not given),196 to 198 °C
